Values quoted from earlier work in paper PMC8764166, “Phenolic-Rich Plant Extracts With Antimicrobial Activity: An Alternative to Food Preservatives and Biocides?” (Frontiers in Microbiology, 2022).
Converted amounts (≈) assume the structure as drawn. Like-named read-outs stand apart in the source and are kept apart here.

Columns and labels:
[1] = tested on: biofilms with undesirable food spoiling or foodborne pathogenic microorganisms; parameters: method as in the references listed per substance; conditions: the references listed per substance
[2] = tested on: Pseudomonas aeruginosa; conditions: 2020
[3] = tested on: Enterococcus faecalis; conditions: ref Adamczak et al., 2020
[4] = tested on: Escherichia coli; conditions: 2020
[5] = tested on: Staphylococcus aureus
[6] = tested on: Bacillus cereus

SMILES | activity against biofilms [1] | MIC against P. aeruginosa ([2]; ref Adamczak et al.) | MIC against Enterococcus faecalis [3] | MIC against E. coli ([4]; ref Adamczak et al.) | further results
CC(C)(C)c1ccc(O)c(O)c1 [4-tert-butylcatechol] | inhibit formation or to eradicate biofilms |  |  |  | 
O=c1cc(-c2ccc(O)c(O)c2)oc2c([C@@H]3O[C@H](CO)[C@@H](O)[C@H](O)[C@H]3O)c(O)cc(O)c12 [Orientin] |  | 500 µg/mL (≈ 1120 µM) | 1000 µg/mL (≈ 2230 µM) | 500 µg/mL (≈ 1120 µM) | MIC against S. aureus ([5]; ref Adamczak et al., 2020): 500 µg/mL (≈ 1120 µM)
O=c1cc(-c2ccccc2)oc2ccccc12 [Flavone] |  | E. faecalis 0.5 g·L^−1 E. coli 0.5 g·L^−1 P. aeruginosa 0.5 g·L^−1 | E. faecalis 0.5 g·L^−1 E. coli 0.5 g·L^−1 P. aeruginosa 0.5 g·L^−1 | E. faecalis 0.5 g·L^−1 E. coli 0.5 g·L^−1 P. aeruginosa 0.5 g·L^−1 | 
C[C@@H]1O[C@@H](O[C@H]2[C@H](Oc3cc(O)c4c(c3)O[C@H](c3ccc(O)cc3)CC4=O)O[C@H](CO)[C@@H](O)[C@@H]2O)[C@H](O)[C@H](O)[C@H]1O [Naringin] |  | 500 µg/mL (≈ 861 µM) | 1000 µg/mL (≈ 1720 µM) | 500 µg/mL (≈ 861 µM) | 
C[C@@H]1O[C@@H](O[C@@H]2[C@@H](O)[C@H](O)[C@@H](CO)O[C@H]2c2c(O)cc(O)c3c(=O)cc(-c4ccc(O)cc4)oc23)[C@H](O)[C@H](O)[C@H]1O [vitexin 2"-o-rhamnoside] |  | 500 µg/mL (≈ 864 µM) | 1000 µg/mL (≈ 1730 µM) | 500 µg/mL (≈ 864 µM) | 
O=C(O)/C=C/c1ccccc1 [cinnamic acid] | inhibit formation or to eradicate biofilms |  |  |  | 
O=c1cc(-c2ccc(O)c(O)c2)oc2cc(O)cc(O)c12 [Luteolin] |  | 500 µg/mL (≈ 1750 µM) | 1000 µg/mL (≈ 3490 µM) |  | MIC against Bacillus cereus ([6]; ref Skroza et al., 2019): 90 µg/mL (≈ 314 µM); MIC against S. aureus ([5]; ref Adamczak et al., 2020): 500 µg/mL (≈ 1750 µM); MIC against S. aureus ([5]; ref Skroza et al., 2019): 45 µg/mL (≈ 157 µM)
O=c1cc(-c2ccc(O)cc2)oc2cc(O)cc(O)c12 [Apigenin] |  | 500 µg/mL (≈ 1850 µM) | 1000 µg/mL (≈ 3700 µM) | 500 µg/mL (≈ 1850 µM) | MIC against S. aureus ([5]; ref Adamczak et al., 2020): 500 to 1000 µg/mL
Oc1cccc(O)c1O [pyrogallol] | inhibit formation or to eradicate biofilms |  |  |  | 
CC(C)=CCc1c(O)ccc2c1O[C@H]1c3ccc(O)cc3OC[C@@H]21 [Phaseollidin] |  |  |  |  | MIC against P. aeruginosa ([2]; ref Sadgrove et al.): 20 µg/mL (≈ 61.7 µM); MIC against B. cereus ([6]; ref Sadgrove et al., 2020): 10 µg/mL (≈ 30.8 µM); MIC against E. coli ([4]; ref Sadgrove et al.): 20 µg/mL (≈ 61.7 µM); MIC against S. aureus ([5]; ref Sadgrove et al., 2020): 10 µg/mL (≈ 30.8 µM)
O=c1c(O)c(-c2cc(O)c(O)c(O)c2)oc2cc(O)cc(O)c12 [myricetin] | inhibit formation or to eradicate biofilms |  |  |  | 
O=c1cc(-c2ccc(O)cc2)oc2c([C@@H]3O[C@H](CO)[C@@H](O)[C@H](O)[C@H]3O)c(O)cc(O)c12 [Vitexin] |  | 500 µg/mL (≈ 1160 µM) | 1000 µg/mL (≈ 2310 µM) | 500 µg/mL (≈ 1160 µM) | 
O=c1cc(-c2ccc(O)c(O)c2)oc2cc(O)c([C@@H]3O[C@H](CO)[C@@H](O)[C@H](O)[C@H]3O)c(O)c12 [isoorientin] |  | 500 µg/mL (≈ 1120 µM) | 1000 µg/mL (≈ 2230 µM) | 500 µg/mL (≈ 1120 µM) | MIC against S. aureus ([5]; ref Adamczak et al., 2020): 500 µg/mL (≈ 1120 µM)
O=c1cc(-c2ccc(O)cc2)oc2cc(O)c([C@@H]3O[C@H](CO)[C@@H](O)[C@H](O)[C@H]3O)c(O)c12 [isovitexin] |  | 500 µg/mL (≈ 1160 µM) | 1000 µg/mL (≈ 2310 µM) | 500 µg/mL (≈ 1160 µM) | 
O=c1c(O)c(-c2ccc(O)cc2O)oc2cc(O)cc(O)c12 [morin] | inhibit formation or to eradicate biofilms |  |  |  | 
